One assay concerns the target T1, human TGR5 receptor (Homo sapiens, UniProt Q8TDU6).
T1 construct: host or cells: CHO-K1 (hTGR5-CHO cells)
T1 sequence (Q8TDU6 1-330): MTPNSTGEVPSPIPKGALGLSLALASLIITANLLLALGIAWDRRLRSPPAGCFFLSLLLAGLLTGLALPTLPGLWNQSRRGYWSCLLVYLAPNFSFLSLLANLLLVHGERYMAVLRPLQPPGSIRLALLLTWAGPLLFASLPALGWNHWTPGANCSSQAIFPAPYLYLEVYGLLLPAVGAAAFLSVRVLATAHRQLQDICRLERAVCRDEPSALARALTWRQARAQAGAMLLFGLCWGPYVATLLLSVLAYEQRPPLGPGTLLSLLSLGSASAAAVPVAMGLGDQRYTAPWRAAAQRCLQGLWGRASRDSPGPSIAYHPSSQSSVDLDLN
Briefly: Human TGR5 cAMP production assay. The class given is cell-based. Conditions: human TGR5, luminescent cAMP assay; coded A-D; read-out: Human TGR5 Lum. cAMP Activity (EC50). The procedure, abridged:
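CHO-K1 cells stably expressing human TGR5, with IBMX and cAMP antibody, were exposed to half-log serially diluted compound for 1 h at room temperature. cAMP measured by enzyme-fragment complementation luminescence (XS+ kit) after overnight incubation; EC50 values reported.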
Background: Changes in cAMP serve as a functional read-out for many G protein-coupled receptors.

Another assay concerns the target T2, mouse TGR5 receptor (Mus musculus, UniProt Q80SS6).
T2 construct: expressed in transfected cells; host or cells: HEK293-EBNA (293 c18, ATCC CRL10852), Hygromycin B selection
T2 sequence (Q80SS6 1-329): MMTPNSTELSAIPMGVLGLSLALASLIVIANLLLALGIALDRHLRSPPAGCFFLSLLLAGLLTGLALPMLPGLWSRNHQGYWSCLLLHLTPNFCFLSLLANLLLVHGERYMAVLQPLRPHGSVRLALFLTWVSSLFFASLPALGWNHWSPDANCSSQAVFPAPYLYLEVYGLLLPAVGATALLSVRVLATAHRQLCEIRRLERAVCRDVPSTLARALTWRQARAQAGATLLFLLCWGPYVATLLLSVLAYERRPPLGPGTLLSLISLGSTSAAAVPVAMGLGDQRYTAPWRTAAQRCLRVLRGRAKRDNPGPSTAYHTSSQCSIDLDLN
Briefly: Mouse TGR5 cAMP production assay (HTRF, Cisbio cAMP HiRange). The class given is cell-based. Conditions: HEK293-EBNA cells overexpressing mouse TGR5, HTRF cAMP HiRange; coded A-D. The essentials: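 cAMP read by HTRF competition after 1 h room-temperature compound exposure of mouse TGR5-overexpressing HEK293-EBNA cells. Cells were suspended in serum-free DMEM containing 500 μM IBMX; compounds ran as 12-point half-log dilutions in duplicate; EC50 derived.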

Molecules are shown by their SMILES. Where only a bound is given, the exact number is not on record here.

One may read the EC50 as the concentration at which the effect is half-maximal.

As for `CC[C@H](NS(=O)(=O)c1ccccc1C(F)(F)F)c1cccc(-c2ccncc2OC)c1` [Compound 1CD], the EC50 on human TGR5 receptor was below 100 nM; on mouse TGR5 receptor, 100 to 999 nM.

With `CC(=O)N(CCCCN([C@@H](C)c1cccc(-c2ccncc2C)c1)S(=O)(=O)c1cccc(Cl)c1C)CCC(=O)O` [Compound 34, (S)-3-(N-(4-(3-chloro-2-methyl-N-(1-(3-(3-methylpyridin-4-yl)phenyl)ethyl)phenylsulfonamido)butyl)acetamido)propanoic acid], the EC50 at human TGR5 receptor and on mouse TGR5 receptor was 100 to 999 nM in each case.

Consider `Cc1cnccc1-c1cccc([C@H](C)N(CCCC(=O)O)S(=O)(=O)c2ccccc2C)c1` [Compound 16AD, (S)-4-(2-methyl-N-(1-(3-(3-methylpyridin-4-yl)phenyl)-ethyl)phenylsulfonamido)butanoic acid], for which the EC50 at human TGR5 receptor and at mouse TGR5 receptor was 100 to 999 nM in each case.

In the case of `Cc1cnccc1-c1cccc(CCN(CCCNC(=O)NCS(=O)(=O)O)S(=O)(=O)c2cccc(Cl)c2C)c1` [Compound 29AD, (3-(3-(3-chloro-2-methyl-N-(3-(3-methylpyridin-4-yl)phenethyl)phenylsulfonamido)propyl)ureido)methanesulfonic acid], the EC50 on human TGR5 receptor is 100 to 999 nM; on mouse TGR5 receptor it was 1000 to 30000 nM.

In the case of `Cc1cnccc1-c1cccc([C@H](C)N(CCCCC(=O)NCCOCCN)S(=O)(=O)c2cccc(Cl)c2C)c1` [Compound 20AT, (S)-N-(2-(2-aminoethoxy)ethyl)-5-(3-chloro-2-methyl-N-(1-(3-(3-methylpyridin-4-yl)phenyl)ethyl)phenylsulfonamido)pentanamide], the half-maximal effective concentration (EC50) at human TGR5 receptor was below 100 nM; on mouse TGR5 receptor, 100 to 999 nM.

As for `Cc1cnccc1-c1cccc(C(C)(C)NS(=O)(=O)c2cccc(Cl)c2Cl)c1` [Compound 2BV], the half-maximal effective concentration (EC50) at human TGR5 receptor and on mouse TGR5 receptor was below 100 nM in each case.

In the case of `Cc1cnccc1-c1cccc(C2(N(CCCC(=O)O)S(=O)(=O)c3cccc(Cl)c3C)COC2)c1` [Compound 16AL, 4-(3-chloro-2-methyl-N-(3-(3-(3-methylpyridin-4-yl)phenyl)-oxetan-3-yl)phenyl-sulfonamido)butanoic acid], the EC50 on human TGR5 receptor and at mouse TGR5 receptor was 100 to 999 nM in each case.

Consider `Cc1cnccc1-c1cccc([C@H](C)N(CCCC(=O)NCCCS(=O)(=O)O)S(=O)(=O)c2cccc(Cl)c2C)c1` [Compound 20AL, (S)-3-(4-(3-chloro-2-methyl-N-(1-(3-(3-methylpyridin-4-yl)phenyl)ethyl)phenylsulfonamido)butanamido)propane-1-sulfonic acid], for which the half-maximal effective concentration (EC50) on human TGR5 receptor and at mouse TGR5 receptor was below 100 nM throughout.

As for `CCc1cnccc1-c1cccc([C@H](C)N(CCCC(=O)O)S(=O)(=O)c2cccc(Cl)c2C)c1` [Compound 16AB, (S)-4-(3-chloro-N-(1-(3-(3-ethylpyridin-4-yl)phenyl)ethyl)-2-methylphenyl-sulfonamido)butanoic acid], the EC50 at human TGR5 receptor and at mouse TGR5 receptor was below 100 nM in each case.

As to `Cc1cnccc1-c1cccc(C(C)(C)N(CCCNS(=O)(=O)CCN2C(=O)c3ccccc3C2=O)S(=O)(=O)c2cccc(Cl)c2C)c1` [Compound 26A, 3-Chloro-N-(3-((2-(1,3-dioxoisoindolin-2-yl)ethyl)sulfonamido)propyl)-2-methyl-N-(2-(3-(3-methylpyridin-4-yl)phenyl)propan-2-yl)benzenesulfonamide], the EC50 at human TGR5 receptor is below 100 nM; on mouse TGR5 receptor it was 100 to 999 nM.

With `CCc1cnccc1-c1cc(O)cc(C(C)(C)NS(=O)(=O)c2ccccc2C(F)(F)F)c1` [Compound 22, N-(2-(3-(3-Ethylpyridin-4-yl)-5-hydroxyphenyl)propan-2-yl)-2-(trifluoromethyl)benzenesulfonamide], the EC50 on human TGR5 receptor and on mouse TGR5 receptor was below 100 nM each time.

`COC(=O)CS(=O)(=O)NCCOCCNC(=O)CCCCN([C@@H](C)c1cccc(-c2ccncc2C)c1)S(=O)(=O)c1cccc(Cl)c1C` [Compound 26AC]: the EC50 is below 100 nM at human TGR5 receptor and 100 to 999 nM at mouse TGR5 receptor.

Regarding `Cc1cnccc1-c1cccc(C(C)(C)N(CCCC(=O)N[C@@H](CS(=O)(=O)O)C(=O)O)S(=O)(=O)c2cccc(Cl)c2C)c1` [Compound 21AA, (R)-2-(4-(3-chloro-2-methyl-N-(2-(3-(3-methylpyridin-4-yl)phenyl)propan-2-yl)phenylsulfonamido)butanamido)-3-sulfopropanoic acid], the concentration giving a half-maximal response (EC50) on human TGR5 receptor is 100 to 999 nM; at mouse TGR5 receptor, below 100 nM.

For the molecule `CCc1cnccc1-c1cccc(C2CN(C(=O)CCC(=O)NCCS(=O)(=O)O)CCN2S(=O)(=O)c2cccc(Cl)c2C)c1` (stereo not drawn) [Compound 53AB, 2-(4-(4-((3-chloro-2-methylphenyl)sulfonyl)-3-(3-(3-ethylpyridin-4-yl)phenyl)piperazin-1-yl)-4-oxobutanamido)ethanesulfonic acid], the EC50 at human TGR5 receptor is 100 to 999 nM; on mouse TGR5 receptor it was below 100 nM.

In the case of `Cc1cnccc1-c1cccc([C@H](C)N(CCCC(=O)NCCNC(=O)[C@@H](N)CS(=O)(=O)O)S(=O)(=O)c2ccccc2C(F)(F)F)c1` [Compound 31AF, (R)-2-amino-3-((2-(4-(N-((S)-1-(3-(3-methylpyridin-4-yl)phenyl)ethyl)-2-(trifluoromethyl)phenylsulfonamido)butanamido)ethyl)amino)-3-oxopropane-1-sulfonic acid], the EC50 on human TGR5 receptor was below 100 nM; at mouse TGR5 receptor, 100 to 999 nM.

In the case of `COc1cnccc1-c1cccc(C2CN(C(=O)CS(=O)(=O)O)CCN2S(=O)(=O)c2cccc(Cl)c2C)c1` (stereo not drawn) [Compound 49AF, 2-(4-((3-chloro-2-methylphenyl)sulfonyl)-3-(3-(3-methoxypyridin-4-yl)phenyl)piperazin-1-yl)-2-oxoethanesulfonic acid], the half-maximal effective concentration (EC50) at human TGR5 receptor and at mouse TGR5 receptor was below 100 nM each time.

In the case of `Cc1nccc(-c2cccc([C@H](C)N(CCCC(=O)O)S(=O)(=O)c3cccc(Cl)c3C)c2)c1C` [Compound 14AG, (S)-4-(3-chloro-N-(1-(3-(2,3-dimethylpyridin-4-yl)phenyl)ethyl)-2-methylphenylsulfonamido)butanoic acid], the 50% effective concentration (EC50) on human TGR5 receptor and on mouse TGR5 receptor was 100 to 999 nM throughout.

In the case of `Cc1cc2nccn2cc1-c1cccc(C(C)(C)NS(=O)(=O)c2ccccc2C(F)(F)F)c1` [Compound 5AK, N-(2-(3-(7-methylimidazo[1,2-a]pyridin-6-yl)phenyl)propan-2-yl)-2-(trifluoromethyl)benzenesulfonamide], the concentration giving a half-maximal response (EC50) was in the range of 100 to 999 nM at human TGR5 receptor and 1000 to 30000 nM on mouse TGR5 receptor.

On to `Cc1cnccc1-c1cccc(C(C)(C)NS(=O)(=O)c2cccc(Cl)c2C)c1` [Compound 2BU], for which the concentration giving a half-maximal response (EC50) on human TGR5 receptor and on mouse TGR5 receptor was below 100 nM each time.

Consider `CCc1cnccc1-c1cccc([C@@H](C)NS(=O)(=O)c2ccccc2C(F)(F)F)c1` [Compound 5AS, (R)-N-(1-(3-(3-ethylpyridin-4-yl)phenyl)ethyl)-2-(trifluoromethyl)benzenesulfonamide], for which the EC50 was below 100 nM at human TGR5 receptor and 100 to 999 nM on mouse TGR5 receptor.

As to `Cc1cnccc1-c1cccc([C@H](C)N(CCCC(=O)NCCNC(=O)NCCC(=O)O)S(=O)(=O)c2cccc(Cl)c2C)c1` [Compound 30, (S)-3-((3-Chloro-2-methylphenyl)sulfonyl)-2-(3-(3-methylpyridin-4-yl)phenyl)-7,12-dioxo-3,8,11,13-tetraazahexadecan-16-oic acid], the EC50 on human TGR5 receptor is below 100 nM; on mouse TGR5 receptor, 100 to 999 nM.

The record behind these values is US11236055B2 (Venenum Biodesign, LLC, priority 2016, dated 2022).
